Experimental data from publication PMC11305846 (ALTEX, 2024).

How the values were obtained:
iPSC-CM = assay: Ca2+ flux phenotypic assay; settings: for beat frequency from Ca2+ flux traces: 100 μM, 90 minutes after treatment, vehicle ~30 beats per minute
iPSC-Hep = assay: High-content imaging phenotypic assay in iPSC-derived hepatocytes, 48 h exposure; type: cell-based, human; settings: 0.1-100 μM, benchmark 1 SD

`O=S(=O)(O)CCC(F)(F)C(F)(F)C(F)(F)C(F)(F)C(F)(F)C(F)(F)C(F)(F)C(F)(F)F` [8:2 FTS, 8:2 Fluorotelomer sulfonic acid] was tested, and the “negative chronotropy: effect that reached benchmark response (5% change)” value (“negative chronotropy … (5% change)” for short) (iPSC-CM; 0.1-100 μM, 90 min) was “decreased peak frequency”.

In the case of `N.O=C(O)C(F)(F)C(F)(F)C(F)(F)C(F)(F)C(F)(F)C(F)(F)C(F)(F)F` [NH4PFOA, Ammonium perfluorooctanoate], the “negative chronotropy … (5% change)” value (iPSC-CM; 0.1-100 μM, 90 min) was “decreased peak frequency”.

For `O=S(=O)(O)C(F)(F)C(F)(F)C(F)(F)C(F)(F)F` [PFBS, Perfluorobutanesulfonic acid], the “beat frequency from Ca2+ flux traces” value (iPSC-CM) was 24 beats per minute and the “negative chronotropy … (5% change)” value (iPSC-CM; 0.1-100 μM, 90 min) was “decreased peak frequency”.

With `O=S(=O)([O-])C(F)(F)C(F)(F)C(F)(F)C(F)(F)C(F)(F)C(F)(F)C(F)(F)C(F)(F)C(F)(F)C(F)(F)F.[Na+]` [PFDS-Na, Sodium perfluorodecanesulfonate] the “QT prolongation: effect that reached benchmark response (5% change)” value (iPSC-CM; 0.1-100 μM, 90 min) was “QT prolongation” and the “negative chronotropy … (5% change)” value (iPSC-CM; 0.1-100 μM, 90 min) was “decreased peak frequency”.

`O=C(O)C(F)(F)C(F)(F)OC(F)(F)F` [PFMPA, Perfluoro-3-methoxypropanoic acid] was tested, and the “negative chronotropy … (5% change)” value (iPSC-CM; 0.1-100 μM, 90 min) was “decreased peak frequency”.

With `O=C(O)C(F)(F)C(F)(F)C(F)(F)C(F)(F)C(F)(F)C(F)(F)C(F)(F)F` [PFOA, Perfluorooctanoic acid] the “negative chronotropy … (5% change)” value (iPSC-CM; 0.1-100 μM, 90 min) was “decreased peak frequency” and the “concentration-response phenotypic effect on cell mean area” value (iPSC-Hep) was “increased mean cell area”.

`O=C(O)C(F)(F)C(F)(F)C(F)(F)C(F)(F)C(F)(F)C(F)(F)C(F)(F)C(F)(F)C(F)(F)C(F)(F)C(F)(F)C(F)(F)C(F)(F)F` [PFTeDA, Perfluorotetradecanoic acid] was tested, and the “negative chronotropy … (5% change)” value (iPSC-CM; 0.1-100 μM, 90 min) was “decreased peak frequency”.

In the case of `O=C(O)C(F)(F)C(F)(F)C(F)(F)C(F)(F)C(F)(F)C(F)(F)C(F)(F)C(F)(F)C(F)(F)C(F)(F)C(F)(F)C(F)(F)F` [PFTiDA, Perfluorotridecanoic acid], the “beat frequency from Ca2+ flux traces” value (iPSC-CM) was 12 beats per minute and the “negative chronotropy … (5% change)” value (iPSC-CM; 0.1-100 μM, 90 min) was “decreased peak frequency”.
